Reference: US20060229321A1, “Rosuvastatin in pre demented states” (priority 2001, published 2006)
Counter-ions that a name gives are not always drawn.

How the values were obtained:
eNOS = eNOS expression and activity in mice after subcutaneous rosuvastatin; assay type: in vivo; conditions: mouse, subcutaneous 2 or 20 mg/kg for 14 days
Source text: (§1) The studies were generally carried out according to the methods set forth in M. Endres et al., Stroke protection by 3-hydroxy-3-methylglutaryl (HMG)-CoA reductase inhibitors mediated by endothelial nitric oxide synthase, Proc. Natl. Acad. Sci. USA, 95:8880-8885 (1998). In many cases dementia is known to result from the cumulative neurodegenerative effects of strokes. These can be major strokes or sub-clinical strokes, and result in a heterogeneous group of dementias commonly called vascular dementia (VAD). In this study rosuvastatin protected the brain in mice from cerebral ischemia A mechanism by which rosuvastatin may prevent dementia is by protecting the brain from cerebral ischemia.

[1] = system: cerebral ischemia caused by middle-cerebral artery occlusion (MCAO); experiment: Infarct volume after middle-cerebral artery occlusion (MCAO) in mice; assay type: in vivo; conditions: mouse, subcutaneous 2 or 20 mg/kg for 14 days before MCAO
Source text: as §1

cholesterol = conditions: cited from earlier work
[2] = treatment of hypercholesterolemia; Am J. Med. 2000:108:538-547; cited from earlier work

| Structure (SMILES) | activity of eNOS (eNOS) | expression of eNOS (eNOS) | volume of infarct resulting from subsequent cerebral ischemia (MCAO) [1] | reducing cholesterol in patients versus other HMG-CoA reductase inhibitors (cholesterol) | performance on neuropsychological tests of attention and psychomotor speed [2] |
| --- | --- | --- | --- | --- | --- |
| CC(C)c1nc(N(C)S(C)(=O)=O)nc(-c2ccc(F)cc2)c1/C=C/[C@@H](O)C[C@@H](O)CC(=O)O [rosuvastatin, bis[(E)-7-[4-(4-fluorophenyl-6-isopropyl-2-[methyl(methylsulfonyl)amino]pyrimidin-5-yl]-(3R,5S)3,5-dihydroxyhept-6-enoic acid]calcium salt] | increased | increased | reduced | superior | – |
| CC[C@H](C)C(=O)O[C@H]1C[C@@H](C)C=C2C=C[C@H](C)[C@H](CC[C@@H]3C[C@@H](O)CC(=O)O3)[C@H]21 [Lovastatin] | – | – | – | – | small performance decrements |
